Data on 1 compound can be found in PMC10330721, “Chemo-enzymatic synthesis and biological activity evaluation of propenylbenzene derivatives” (Frontiers in Microbiology, 2023).

What is called MIC50 is the lowest concentration that inhibits either 50% of growth or 50% of the strains tested, depending on the study.

Converted amounts (≈) assume the structure as drawn.

In one data set the test system is C. albicans ATTC 90028. The data set is described as follows: Fungistatic activity assay, broth microdilution. Conditions: Candida albicans; C. albicans ATTC90028, 24 h, 35°C, tested 10–250 μg/mL; read-out: MIC50. It is filed as cell-based. In general terms: Broth dilution looks for growth in wells or tubes with falling amounts of substance.
A further data set concerns C. albicans 636/20. Briefly: Fungistatic activity assay, broth microdilution. The following applies: Candida albicans; C. albicans 636/20, 24 h, 35°C, tested 10–250 μg/mL; read-out: MIC50. It is filed as cell-based.
A further data set concerns HepG2 cells. The data set is described as follows: Resazurin-based viability assay. The following applies: 24 h, 1, 50 and 200 μg/mL. It is filed as cell-based, human. The method, boiled down: (§1)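 HepG2 and Caco-2 cells, 20,000 per well, exposed 24 h to compounds at 1, 50 and 200 μg/mL (from ethanol stock) alongside ethanol-only controls. Viability read with 10% resazurin for 2 h at 37°C, absorbance 600 nm against 690 nm reference.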

For the next data set, the system named is Caco-2 cells. The data set is described as follows: Resazurin-based viability assay. The following applies: 24 h, 1, 50 and 200 μg/mL. It is filed as cell-based, human. The procedure, abridged:
as §1
On the technique in general: The colour change of resazurin is a common sign of viable cells or microbes.

The subject of the next data set is RBCs membrane. Briefly: Fluorescence spectroscopy of the RBCs membrane (DPH probe anisotropy). Type of data set: cell-based, human. Conditions: for Fluorescence anisotropy of the DPH probe: membranes of RBCs, 37 °C. On the technique in general: Fluorescence polarisation rises when a labelled molecule tumbles more slowly, as on binding a larger partner.
The test system of data set [1] is R. erythropolis DSM44534 and R. erythropolis PCM2150. The data set is described as follows: Substrate inhibition in preparative biotransformation. Type of data set: cell-based, Rhodococcus erythropolis. The following applies: preparative scale, high concentration of substrate (0.2 g in 500 mL PCM medium). The method, then: (§2) Five hundred millilitres of PCM medium was added into a 2,000-mL Erlenmeyer flask and sterilized at 121°C for 15 min. The medium was inoculated with 5 mL of pre-prepared bacterial cultures at OD600 = 0.3–0.5. The cultures were incubated at 22°C under shaking at 150 rpm for 3 days. Then, 0.2 g of diols 1b–5b dissolved in 5 mL of DMSO was added into the cultures. The samples were extracted after 3, 7, 11 days and evaluated by GC to estimate the progress of the biotransformation.

The test system of the next data set is Dietzia sp. DSM44016. Briefly: Substrate toxicity in preparative biotransformation. Type of data set: cell-based. Conditions: preparative scale, 0.2 g substrate in 500 mL PCM medium. The method, then:
as §2

The nature of data set [2]: Haemolytic activity assay. It is filed as cell-based. The following applies: human red blood cells (RBCs) from healthy donors, 37°C, read-out: Percentage of haemolysis.

Regarding `CC(O)C(O)c1ccccc1` (stereo not shown) [2b, 1-phenylpropane-1,2-diol], the MIC50 worked out at 125 µg/mL (≈ 821 µM) in the data set on C. albicans ATTC 90028 and 121 µg/mL (≈ 795 µM) in the data set on C. albicans 636/20. Besides, the “Effect on HepG2 proliferation / viability (in words)” value in the data set on HepG2 cells is listed as “highest inhibitory effect”. Moreover, in the data set on Caco-2 cells, the “Effect on Caco-2 proliferation / viability (in words)” value was “strongest inhibition”. In the data set with RBCs membrane (RBCs, 20, 60 and 100 μM), the “Change in DPH anisotropy / RBCs membrane fluidity (in words)” value is listed as “increase in anisotropy”. Besides, the “Fluorescence anisotropy of the DPH probe” value was 0.286 ± 0.015 with RBCs membrane (20 µM), 0.277 ± 0.028 in the data set on RBCs membrane (60 µM) and 0.278 ± 0.011 in the data set on RBCs membrane (100 µM). The “Inhibitory effect of substrate on the strains (in words)” value in data set [1] is “inhibitory effect”. Moreover, the “Toxicity of substrate to the strain (in words)” value with Dietzia sp. DSM44016 is listed as “toxic”. For the same compound, in data set [2] (10 µM), the hemolysis at 1 h, 10 µM is 1.04 ± 0.275%. The hemolysis at 1 h, 20 µM in data set [2] (20 µM) came out at 1.08 ± 0.107%. Besides, in data set [2] (40 µM), the hemolysis at 1 h, 40 µM is 1 ± 0.295%. The hemolysis at 1 h, 60 µM in data set [2] (60 µM) was determined as 1.32 ± 0.255%. The hemolysis at 1 h, 80 µM in data set [2] (80 µM) was 1.79 ± 0.382%. In addition, the hemolysis at 1 h, 100 µM in data set [2] (100 µM) is 1.71 ± 0.054%.
